According to ChEMBL document CHEMBL1201862, “PubChem BioAssay data set” (2004):
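Each compound was tested at five concentrations against cells in 96-well plates for 48 hours. GI50 is the concentration that inhibits growth by half.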 Calls of active or inactive are those of the source. Rule as the data show it: active = GI50 up to about 1.1 µM and inactive = higher.

Key:
Experiment in all cases: inhibition of tumour cell growth, NCI panel, 48 h
NCI/ADR-RES = tested on: NCI/ADR-RES
UACC-62 = tested on: UACC-62
MDA-MB-231 = tested on: MDA-MB-231
DU-145 = tested on: DU-145
A498 = tested on: A498
UACC-257 = tested on: UACC-257
A549 = tested on: A549
IGROV-1 = tested on: IGROV-1
SNB-19 = tested on: SNB-19
MDA-MB-435 = tested on: MDA-MB-435
SK-OV-3 = tested on: SK-OV-3
Hs-578T = tested on: Hs-578T
NCI-H522 = tested on: NCI-H522
BT-549 = tested on: BT-549
HOP-62 = tested on: HOP-62
OVCAR-8 = tested on: OVCAR-8
OVCAR-4 = tested on: OVCAR-4
MDA-N = tested on: MDA-N
SF-268 = tested on: SF-268
CCRF-CEM = tested on: CCRF-CEM

Row | SMILES | GI50 (NCI/ADR-RES) | GI50 (UACC-62) | GI50 (MDA-MB-231) | GI50 (DU-145) | GI50 (A498) | GI50 (UACC-257) | GI50 (A549) | GI50 (IGROV-1) | GI50 (SNB-19) | GI50 (MDA-MB-435) | GI50 (SK-OV-3) | GI50 (Hs-578T) | GI50 (NCI-H522) | GI50 (BT-549) | GI50 (HOP-62) | GI50 (OVCAR-8) | GI50 (OVCAR-4) | GI50 (MDA-N) | GI50 (SF-268) | GI50 (CCRF-CEM)
1 | CCOC(=O)c1ccc(/N=C/C=C(\Nc2ccc(C(=O)OCC)cc2)C23CC4CC(CC(C4)C2)C3)cc1 | > 100 µM (inactive) | 31 µM (inactive) | > 100 µM (inactive) | 55.1 µM (inactive) | 38.4 µM (inactive) | 35.9 µM (inactive) | 50.6 µM (inactive) | > 100 µM (inactive) | > 100 µM (inactive) | 89.7 µM (inactive) | > 100 µM (inactive) | > 100 µM (inactive) | > 100 µM (inactive) | > 100 µM (inactive) | > 100 µM (inactive) | 44.3 µM (inactive) | 70 µM (inactive) | 61.1 µM (inactive) | > 100 µM (inactive) | 
2 | Cc1cc2c(cc1Cl)Sc1nnc(Nc3ccccc3)n1S2(=O)=O | 6.22 µM (inactive) |  | 11.7 µM (inactive) | 18.2 µM (inactive) | 12.7 µM (inactive) | 16.6 µM (inactive) | 12.1 µM (inactive) | 10 µM (inactive) |  | 5.01 µM (inactive) |  | 3.15 µM (inactive) | 2.93 µM (inactive) | 7.78 µM (inactive) | 3.64 µM (inactive) | 5.97 µM (inactive) | 6.89 µM (inactive) | 6.05 µM (inactive) | 2.32 µM (inactive) | 
3 | COc1cc(/C=C2\C(=O)N(c3ccccc3)C(c3ccccc3)S2(=O)=O)cc(OC)c1OC (stereo unspecified) | 28.4 µM (inactive) | 30.1 µM (inactive) | 97.5 µM (inactive) | 37.9 µM (inactive) | > 100 µM (inactive) | 32.1 µM (inactive) | 43.8 µM (inactive) |  | 31 µM (inactive) | 27 µM (inactive) | 62.7 µM (inactive) | 70.3 µM (inactive) | 29.7 µM (inactive) | 35.6 µM (inactive) | 70.6 µM (inactive) | 21.3 µM (inactive) | 27.5 µM (inactive) | 16.4 µM (inactive) | > 100 µM (inactive) | 10.6 µM (inactive)
4 | CC(=O)Nc1ccc2c(C)c3c(nc2n1)[nH]c1ccccc13 | 22.1 µM (inactive) | 22.6 µM (inactive) | 35.1 µM (inactive) | 33.6 µM (inactive) | 60.7 µM (inactive) | 32.9 µM (inactive) | 41.1 µM (inactive) | 22.2 µM (inactive) |  | 29.6 µM (inactive) |  | 19.8 µM (inactive) | 20 µM (inactive) | 31.9 µM (inactive) | 32.2 µM (inactive) | 24.9 µM (inactive) | 38.7 µM (inactive) | 18.1 µM (inactive) | 33 µM (inactive) | 30.6 µM (inactive)
5 | c1ccc(C2=NNC3c4ccccc4-c4ccccc4N3C2)cc1 (stereo unspecified) | 31.8 µM (inactive) | 16.4 µM (inactive) | 26 µM (inactive) | 40.5 µM (inactive) | 30 µM (inactive) | 27.2 µM (inactive) | 32.7 µM (inactive) | 31.6 µM (inactive) | 40 µM (inactive) | 27.8 µM (inactive) | 46.6 µM (inactive) | 34.8 µM (inactive) | 26.1 µM (inactive) | 33.3 µM (inactive) | 46.1 µM (inactive) | 33.8 µM (inactive) | 37.9 µM (inactive) | 33.5 µM (inactive) | 44.9 µM (inactive) | 
6 | CN(CC#N)C(=O)Cc1ccc([N+](=O)[O-])cc1 | > 10 µM (inactive) | > 10 µM (inactive) | > 10 µM (inactive) | > 10 µM (inactive) | > 10 µM (inactive) | > 10 µM (inactive) | > 10 µM (inactive) | > 10 µM (inactive) | > 10 µM (inactive) | > 10 µM (inactive) | > 10 µM (inactive) | > 10 µM (inactive) |  | > 10 µM (inactive) | > 10 µM (inactive) | > 10 µM (inactive) | > 10 µM (inactive) | > 10 µM (inactive) | > 10 µM (inactive) | > 10 µM (inactive)
7 | CN(C)c1ccc(C2SCC(=O)N2c2ccc(Oc3ccc(Cl)cc3)c(Cl)c2)cc1 (stereo unspecified) | 22.3 µM (inactive) | 19 µM (inactive) | 20.4 µM (inactive) | 16.7 µM (inactive) |  | 36.6 µM (inactive) | 22.7 µM (inactive) | 22.6 µM (inactive) | 20.3 µM (inactive) | 22.7 µM (inactive) | 29 µM (inactive) | 14.4 µM (inactive) | 18.3 µM (inactive) | 17 µM (inactive) | 20.5 µM (inactive) | 28.2 µM (inactive) | 22.9 µM (inactive) | 28.6 µM (inactive) | 13.8 µM (inactive) | 18.5 µM (inactive)
8 | CC1OC2OC3C(OCC(O)C3O)OC(=O)[C@]34CCC(C)(C)CC3C3=CCC5[C@@]6(C)C[C@H](O)[C@H](OC7OC(CO)C(O)C(O)C7OC7OC(COC(=O)CC(C)(O)CC(=O)OC1C(OC1OC(CO)C(O)C(O)C1O)C2O)C(O)C(O)C7O)[C@@](C)(CO)C6CC[C@@]5(C)[C@]3(C)CC4 (stereo partly specified) | 3.15 µM (inactive) | 1.64 µM (inactive) | 7.52 µM (inactive) | 2.61 µM (inactive) |  | 1.64 µM (inactive) | 0.14 µM (active) | 3.9 µM (inactive) | 5.81 µM (inactive) | 1.91 µM (inactive) | 12.2 µM (inactive) | 8 µM (inactive) | 2 µM (inactive) | 6.03 µM (inactive) | 1.46 µM (inactive) | 3.92 µM (inactive) | 5.16 µM (inactive) | 1.44 µM (inactive) | 2.94 µM (inactive) | 4.18 µM (inactive)
9 | Cc1ccc2c(=O)c(C(=O)N(CCO)CCO)c[nH]c2n1 | > 100 µM (inactive) | > 100 µM (inactive) | > 100 µM (inactive) | > 100 µM (inactive) | > 100 µM (inactive) | > 100 µM (inactive) | > 100 µM (inactive) | > 100 µM (inactive) | > 100 µM (inactive) | > 100 µM (inactive) |  | > 100 µM (inactive) | > 100 µM (inactive) | > 100 µM (inactive) | > 100 µM (inactive) | > 100 µM (inactive) | > 100 µM (inactive) | > 100 µM (inactive) | > 100 µM (inactive) | > 100 µM (inactive)
10 | Nc1ncnc2c1ncn2C1OC(COP(=O)(O)CP(=O)(O)O)C(O)C1O (stereo unspecified) | > 100 µM (inactive) | > 100 µM (inactive) | > 10 µM (inactive) | > 100 µM (inactive) | > 100 µM (inactive) | > 100 µM (inactive) | > 100 µM (inactive) | > 100 µM (inactive) | > 100 µM (inactive) | > 100 µM (inactive) | > 100 µM (inactive) | > 100 µM (inactive) | > 100 µM (inactive) | > 100 µM (inactive) | > 100 µM (inactive) | > 100 µM (inactive) |  | > 100 µM (inactive) | > 100 µM (inactive) | > 100 µM (inactive)
11 | CC(C)C[C@H](NC(=O)CCc1ccccc1)B(O)O | 22.7 µM (inactive) | 14.8 µM (inactive) | 17.7 µM (inactive) | 60.8 µM (inactive) | 3.19 µM (inactive) | 12.5 µM (inactive) | 35.4 µM (inactive) | 23.2 µM (inactive) | 15.4 µM (inactive) | 2.67 µM (inactive) |  | 5.78 µM (inactive) | 11.7 µM (inactive) | 17.5 µM (inactive) | 16.8 µM (inactive) | 19.7 µM (inactive) | 36.5 µM (inactive) | 2.49 µM (inactive) | 10.1 µM (inactive) | 2.33 µM (inactive)
12 | c1cc2c(cc1C1=NCCN1)c1cc(C3=NCCN3)ccc1n2CC1CCCCC1 | > 100 µM (inactive) |  | 16.6 µM (inactive) | 18.1 µM (inactive) | > 100 µM (inactive) | 22.7 µM (inactive) | 19.1 µM (inactive) | 18.2 µM (inactive) | 5.9 µM (inactive) | 18 µM (inactive) | 18.5 µM (inactive) | 6.19 µM (inactive) | 4.94 µM (inactive) | 18.5 µM (inactive) | 23.8 µM (inactive) | 25.4 µM (inactive) | 22.5 µM (inactive) | 23.6 µM (inactive) | 4.31 µM (inactive) | 11.5 µM (inactive)
13 | COc1cccc(-c2c(C#N)c(N)nc3c2CCS(=O)(=O)c2ccc(C)cc2-3)c1 | > 100 µM (inactive) | > 100 µM (inactive) | > 100 µM (inactive) | > 100 µM (inactive) | > 100 µM (inactive) | 65.2 µM (inactive) | > 100 µM (inactive) | > 100 µM (inactive) | 56.2 µM (inactive) | > 100 µM (inactive) |  | > 100 µM (inactive) | > 100 µM (inactive) | > 100 µM (inactive) | > 100 µM (inactive) | 43.8 µM (inactive) | 95.5 µM (inactive) | > 100 µM (inactive) | > 100 µM (inactive) | > 100 µM (inactive)
14 | NS(=O)(=O)c1nnc(NC(=O)c2ccccc2)s1 | > 100 µM (inactive) | > 100 µM (inactive) | > 100 µM (inactive) | > 100 µM (inactive) | > 100 µM (inactive) | > 100 µM (inactive) | > 100 µM (inactive) |  | > 100 µM (inactive) | > 100 µM (inactive) | > 100 µM (inactive) | > 100 µM (inactive) | > 100 µM (inactive) | > 100 µM (inactive) | > 100 µM (inactive) | > 100 µM (inactive) | 0.536 µM (active) | > 100 µM (inactive) | > 100 µM (inactive) | 
